Test results: ChEMBL document CHEMBL3817755, “Design, synthesis and biological evaluation of indazolepyrimidine based derivatives as anticancer agents with anti-angiogenic and antiproliferative activities” (Medchemcomm, 2016)

Key:
[1] = test system: M14; test: Growth inhibition of human M14 cells after 48 hrs by SRB assay; type: functional; conditions: M14, 48 h
[2] = Growth inhibition of human SKOV3 cells after 48 hrs by SRB assay; type: functional; conditions: SK-OV-3, 48 h
[3] = Growth inhibition of human NCI-ADR-RES cells after 48 hrs by SRB assay; type: functional
[4] = test system: MDA-MB-435; test: Growth inhibition of human MDA-MB-435 cells after 48 hrs by SRB assay; type: functional; conditions: MDA-MB-435, 48 h
[5] = Growth inhibition of human DU145 cells after 48 hrs by SRB assay; type: functional; conditions: DU-145, 48 h
[6] = test system: A549; test: Growth inhibition of human A549/ATCC cells after 48 hrs by SRB assay; type: functional; conditions: A549, 48 h
[7] = Growth inhibition of human Caki1 cells after 48 hrs by SRB assay; type: functional; conditions: CAKI-1, 48 h
[8] = test system: Malme-3M; test: Growth inhibition of human MALME-3M cells after 48 hrs by SRB assay; type: functional
[9] = test system: KM12; test: Growth inhibition of human KM12 cells after 48 hrs by SRB assay; type: functional; conditions: KM12, 48 h
[10] = Growth inhibition of human HL-60(TB) cells after 48 hrs by SRB assay; type: functional; conditions: HL-60, 48 h
[11] = Growth inhibition of human SF295 cells after 48 hrs by SRB assay; type: functional; conditions: SF-295, 48 h
[12] = test system: SR; test: Growth inhibition of human SR cells after 48 hrs by SRB assay; type: functional
[13] = test system: MDA-MB-468; test: Growth inhibition of human MDA-MB-468 cells after 48 hrs by SRB assay; type: functional; conditions: MDA-MB-468, 48 h
[14] = biological target: Hepatocyte growth factor receptor (Homo sapiens) (UniProt P08581); test: Inhibition of c-Met (unknown origin) at 10 uM
[15] = Growth inhibition of human SF539 cells after 48 hrs by SRB assay; type: functional; conditions: SF-539, 48 h
[16] = test system: NCI-H23; test: Growth inhibition of human NCI-H23 cells after 48 hrs by SRB assay; type: functional; conditions: NCI-H23, 48 h
[17] = test system: U-251; test: Growth inhibition of human U251 cells after 48 hrs by SRB assay; type: functional; conditions: U-251, 48 h
[18] = Growth inhibition of human COLO205 cells after 48 hrs by SRB assay; type: functional; conditions: COLO 205, 48 h
[19] = test system: EKVX; test: Growth inhibition of human EKVX cells after 48 hrs by SRB assay; type: functional
[20] = Growth inhibition of human RXF393 cells after 48 hrs by SRB assay; type: functional; conditions: RXF 393, 48 h
[21] = Growth inhibition of human HCT116 cells after 48 hrs by SRB assay; type: functional; conditions: HCT-116, 48 h
[22] = Growth inhibition of human SNB75 cells after 48 hrs by SRB assay; type: functional; conditions: SNB-75, 48 h
[23] = Growth inhibition of human SW620 cells after 48 hrs by SRB assay; type: functional; conditions: SW-620, 48 h
[24] = test system: T47D; test: Growth inhibition of human T47D cells after 48 hrs by SRB assay; type: functional
[25] = Growth inhibition of human HOP62 cells after 48 hrs by SRB assay; type: functional; conditions: HOP-62, 48 h
[26] = Growth inhibition of human HCC2998 cells after 48 hrs by SRB assay; type: functional; conditions: HCC 2998, 48 h
[27] = test system: MCF7; test: Growth inhibition of human MCF7 cells after 48 hrs by SRB assay; type: functional; conditions: MCF7, 48 h
[28] = Growth inhibition of human OVCAR3 cells after 48 hrs by SRB assay; type: functional; conditions: OVCAR-3, 48 h
[29] = Growth inhibition of human PC3 cells after 48 hrs by SRB assay; type: functional; conditions: PC-3, 48 h
[30] = Growth inhibition of human Hs 578T cells after 48 hrs by SRB assay; type: functional
[31] = test system: NCI-H522; test: Growth inhibition of human NCI-H522 cells after 48 hrs by SRB assay; type: functional; conditions: NCI-H522, 48 h
[32] = Growth inhibition of human HCT15 cells after 48 hrs by SRB assay; type: functional; conditions: HCT-15, 48 h
[33] = test system: SN12C; test: Growth inhibition of human SN12C cells after 48 hrs by SRB assay; type: functional
[34] = Growth inhibition of human LOXIMVI cells after 48 hrs by SRB assay; type: functional; conditions: LOX IMVI
[35] = Growth inhibition of human OVCAR8 cells after 48 hrs by SRB assay; type: functional; conditions: OVCAR-8, 48 h
[36] = read-out: LC50 (the source's name)

Hepatocyte growth factor receptor (Homo sapiens), sequence (P08581 whole entry): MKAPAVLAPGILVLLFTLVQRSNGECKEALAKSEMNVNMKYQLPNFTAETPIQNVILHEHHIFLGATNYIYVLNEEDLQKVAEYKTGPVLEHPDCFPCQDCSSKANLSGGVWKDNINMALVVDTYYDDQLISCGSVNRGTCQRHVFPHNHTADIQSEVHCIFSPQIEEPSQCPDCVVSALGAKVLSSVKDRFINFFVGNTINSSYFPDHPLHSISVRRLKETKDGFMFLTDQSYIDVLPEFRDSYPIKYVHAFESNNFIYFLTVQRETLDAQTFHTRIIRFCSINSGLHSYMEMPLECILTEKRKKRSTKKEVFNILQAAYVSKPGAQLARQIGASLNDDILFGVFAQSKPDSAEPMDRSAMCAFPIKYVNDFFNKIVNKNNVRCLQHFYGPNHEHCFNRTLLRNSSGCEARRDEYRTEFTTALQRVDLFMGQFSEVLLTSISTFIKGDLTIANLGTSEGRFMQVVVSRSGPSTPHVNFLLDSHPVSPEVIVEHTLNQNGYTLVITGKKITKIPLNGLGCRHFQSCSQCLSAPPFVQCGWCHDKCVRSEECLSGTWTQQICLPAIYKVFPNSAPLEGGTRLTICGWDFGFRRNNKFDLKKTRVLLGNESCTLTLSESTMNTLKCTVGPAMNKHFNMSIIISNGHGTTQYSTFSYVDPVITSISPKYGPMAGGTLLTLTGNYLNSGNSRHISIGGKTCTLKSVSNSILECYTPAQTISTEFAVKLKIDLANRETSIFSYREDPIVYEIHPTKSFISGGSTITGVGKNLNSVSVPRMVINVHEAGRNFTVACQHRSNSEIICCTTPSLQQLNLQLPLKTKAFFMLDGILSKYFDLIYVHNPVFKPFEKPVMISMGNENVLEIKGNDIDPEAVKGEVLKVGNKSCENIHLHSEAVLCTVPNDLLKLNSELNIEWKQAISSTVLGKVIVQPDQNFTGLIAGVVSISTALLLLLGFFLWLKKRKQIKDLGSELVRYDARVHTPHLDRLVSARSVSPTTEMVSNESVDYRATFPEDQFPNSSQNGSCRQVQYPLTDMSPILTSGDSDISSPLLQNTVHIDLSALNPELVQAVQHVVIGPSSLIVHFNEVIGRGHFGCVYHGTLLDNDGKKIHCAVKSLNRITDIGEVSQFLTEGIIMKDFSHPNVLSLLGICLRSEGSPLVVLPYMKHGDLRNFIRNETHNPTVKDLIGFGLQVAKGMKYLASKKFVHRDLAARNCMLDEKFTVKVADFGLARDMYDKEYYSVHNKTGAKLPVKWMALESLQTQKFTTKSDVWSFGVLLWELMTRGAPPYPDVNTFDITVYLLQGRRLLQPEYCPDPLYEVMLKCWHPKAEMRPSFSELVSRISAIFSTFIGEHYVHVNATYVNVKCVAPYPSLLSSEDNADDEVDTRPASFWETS

Compound: COc1ccc(Nc2nccc(Nc3ccc4[nH]ncc4c3)n2)cc1
- GI50 [1]: 2.39 µM
- TGI [1]: 6.15 µM
- CC50 [1, 36]: 21.2 µM
- GI50 [2]: 7.04 µM
- LC50 [2]: 58.8 µM
- TGI [2]: 21.7 µM
- GI50 [3]: 2.18 µM
- LC50 [3]: 29.4 µM
- TGI [3]: 5.75 µM
- GI50 [4]: 2.1 µM
- LC50 [4]: 20.1 µM
- TGI [4]: 5.7 µM
- GI50 [5]: 3.31 µM
- LC50 [5]: 41.7 µM
- TGI [5]: 12.9 µM
- GI50 [6]: 3.46 µM
- TGI [6]: 14.3 µM
- CC50 [6, 36]: 78.8 µM
- GI50 [7]: 2.22 µM
- TGI [7]: 14.9 µM
- CC50 [7, 36]: 38.6 µM
- GI50 [8]: 3.27 µM
- TGI [8]: 15.9 µM
- CC50 [8, 36]: > 100 µM
- GI50 [9]: 3.45 µM
- TGI [9]: 24.2 µM
- CC50 [9, 36]: > 100 µM
- GI50 [10]: 2.05 µM
- LC50 [10]: > 100 µM
- TGI [10]: 4.67 µM
- GI50 [11]: 3.78 µM
- LC50 (concentration killing 50% of cells) [11]: 37.1 µM
- TGI [11]: 13.8 µM
- GI50 [12]: 1.75 µM
- TGI [12]: 4.67 µM
- CC50 [12, 36]: > 100 µM
- GI50 [13]: 1.7 µM
- TGI [13]: 4.55 µM
- CC50 [13, 36]: 20.6 µM
- inhibition [14]: 42%
- GI50 [15]: 4.38 µM
- TGI [15]: 16.8 µM
- CC50 [15, 36]: 51.3 µM
- GI50 [16]: 2.35 µM
- TGI [16]: 6.27 µM
- CC50 [16, 36]: 87.3 µM
- GI50 [17]: 3.61 µM
- TGI [17]: 13.6 µM
- CC50 [17, 36]: 36.9 µM
- GI50 [18]: 2.59 µM
- LC50 [18]: 25.4 µM
- TGI [18]: 7.21 µM
- GI50 [19]: 5 µM
- TGI [19]: 17.9 µM
- CC50 [19, 36]: 42.3 µM
- GI50 [20]: 1.98 µM
- LC50 (50% lethal concentration) [20]: 24.3 µM
- TGI [20]: 6.45 µM
- GI50 [21]: 2.06 µM
- TGI [21]: 4.91 µM
- CC50 [21, 36]: 73.1 µM
- GI50 [22]: 4.58 µM
- LC50 [22]: 51.7 µM
- TGI [22]: 20.3 µM
- GI50 [23]: 3.31 µM
- TGI [23]: > 100 µM
- CC50 [23, 36]: > 100 µM
- GI50 [24]: 1.77 µM
- LC50 (concentration killing 50% of cells) [24]: 97.8 µM
- TGI [24]: 5.24 µM
- GI50 [25]: 2.27 µM
- LC50 [25]: 19.4 µM
- TGI [25]: 5.76 µM
- GI50 [26]: 2.88 µM
- TGI [26]: 8.05 µM
- CC50 [26, 36]: 27.6 µM
- GI50 [27]: 2.05 µM
- TGI [27]: 5.36 µM
- CC50 [27, 36]: > 100 µM
- GI50 [28]: 3.15 µM
- TGI [28]: 10.6 µM
- CC50 [28, 36]: 44 µM
- GI50 [29]: 2.21 µM
- LC50 [29]: 50.4 µM
- TGI [29]: 7.2 µM
- GI50 [30]: 5.02 µM
- TGI [30]: > 100 µM
- CC50 [30, 36]: > 100 µM
- GI50 [31]: 1.86 µM
- LC50 [31]: 15.6 µM
- TGI [31]: 4.77 µM
- GI50 [32]: 1.9 µM
- LC50 [32]: 9.61 µM
- TGI [32]: 4.28 µM
- GI50 [33]: 3.92 µM
- TGI [33]: > 100 µM
- CC50 [33, 36]: > 100 µM
- GI50 [34]: 1.92 µM
- LC50 [34]: 7.8 µM
- TGI [34]: 3.87 µM
- GI50 [35]: 2.24 µM
- TGI [35]: 5.39 µM
- CC50 [35, 36]: > 100 µM
